In data set [1] the test system is wild-type KRAS HeLa cells. In words: HeLa cell viability, wild-type KRAS transgene, Cell Titre Blue. In kind it is cell-based. As to conditions: 72 hours, listed as A-3, read-out: WT GI50. Here is the method:
(§1) Atropisomers A-1, A-2, A-3 and A-4 were tested on HeLa cells engineered to inducibly express wild-type or oncogenic KRasG12V transgenes using the FLP-in/T-Rex system (Invitrogen). Cells were plated, and then treated with or without Doxycycline to induce transgene expression, and then treated with serially-diluted PBD inhibitors. After 72 hours of incubation, cell viability was assessed using the Cell Titre Blue reagent (Promega) and a BMG Pherastar plate reader. The effect of PBD inhibition on cell viability with either wild-type or oncogenic G12V KRAS was assessed using GraphPad Prism.
(§2) From the results obtained by following the above protocol, the GI50 values against the wild-type and KRAS G12V HeLa cell line of each of the atropisomers were determined as shown in Table 12.

Data set [2] is described as follows: Mouse PK, plasma after i.v. and p.o. dosing (oral bioavailability). In kind it is in vivo, Male CD-1 mice. As to conditions: for half-life: read-out: T ½ (converted). Here is the method: (§3) Atropisomers A-2 and A-3 were evaluated in an in vivo mouse model to determine brain and plasma concentrations following p.o. and i.v. dosing.
(§4) Male CD-1 mice were dosed with the compounds of Examples A-2 and A-3, either by i.v. administration (2 mg/kg) or by p.o. administration (10 mg/kg). Eight samples were taken for analysis in the i.v. leg at 2, 10, 30 min, 1, 2, 4, 8, and 24 (for i.v) and 9 samples in the p.o. leg at 15, 30 min, 1, 2, 4, 8, 24, 48 and 72 hrs.
(§5) The compounds of Examples A-2 and A-3 were both formulated in 10% DMSO/90% hydroxypropyl-beta-cyclodextrin (20% w/v in water) for i.v. and p.o. dosing. N =3 mice per time point.
(§6) Post dosing, terminal blood samples were taken from individual animals and delivered into labelled polypropylene tubes containing anticoagulant (EDTA). The samples were held on wet ice for a maximum of 30 min while sampling of all the animals in the cohort was completed. The blood samples were centrifuged for plasma (4° C., 21100 g for 5 min) and the resulting plasma transferred into corresponding labelled tubes. Terminal brains from each PO dosed animal were excised, rinsed with saline and placed into pre-weighed labelled polypropylene tubes and the samples re-weighed prior to storage.
(§7) Quantitative bioanalysis was carried out using liquid chromatography—mass spectroscopy was performed. The results are shown in Tables 14, 15 and 16 below and in FIGS. 12 to 15.

The next data set relates to KRAS G12V HeLa cell line. In words: HeLa cell viability, oncogenic KRasG12V transgene, Cell Titre Blue. It counts as cell-based. Conditions: KRAS G12V HeLa cells, 72 hours; listed as A-3. Here is the method:
as §1, §2

The nature of data set [3]: Mouse PK, brain exposure after p.o. dosing. In kind it is in vivo, Male CD-1 mice. Here is the method: as §3, §4, §5, §6, §7
Data set [4] deals with U87MG cells. In words: U87MG human glioblastoma cell viability, SRB assay, 72 hours. In kind it is cell-based. Conditions: listed as A-3. Here is the method:
The following protocol was used to measure the effects of compounds of the invention on U87MG cell viability.
U87MG cells were grown in their recommended growth media/supplements (ATCC). Cells were seeded at a concentration of 5000 cells per well into 96 well plates overnight at 37° C., 5% CO2. Cells were treated with relevant concentrations of test compound for 72 hours. After 72 hours incubation, viability was established using sulforhodamine B (SRB) colorimetric assay. Percentage viability was calculated against the mean of the DMSO treated control samples, and IC50 values for inhibition of cell growth were calculated using GraphPad Prism software by nonlinear regression (4 parameter logistic equation).

The subject of the next data set is HeLa cells. Put plainly: Cells in mitosis (phospho-histone H3, mitotic index), HeLa. As to conditions: Homo sapiens, % mitotic cells (phospho-histone H3), 24 hours. It counts as cell-based. An excerpt: (§8) Inhibiting the ability of PLK1 and PLK4 to bind to their partners through their PBDs is known to cause cells to arrest in mitosis. Experimentally, this can be measured by assessing the number of cells which are in mitosis at a certain time after treatment with a test compound by immunofluorescent detection of phosphorylated Histone H3 (pH3), a mark which is only present in mitotic cells. PLK1/4-PBD inhibitors are expected to cause a dose-dependent increase in pH3-positive cells, which is reported as Mitotic Index (MI)—the percentage of cells which, at a given time, are positive for this mitotic mark.
(§9) The following protocol was used to measure the effects of atropisomer A-2 and atropisomer A-3 on arresting cells in mitosis.
(§10) Cells were plated at 10 000/well in 96-well plates and incubated overnight. The following day atropisomer A-2 stocks in DMSO were diluted in medium then added to cells with a maximum final DMSO concentration on cells of 0.2%. Cells were incubated with the compound for 24 hours then fixed in 3.7% formaldehyde. Cells were permeabilised with 0.1% Triton X-100 then incubated with anti-phospho-histone H3 (Ser10) antibody (Abcam). The cells were washed with PBS then incubated with AlexaFluor 488 labelled goat anti-rabbit IgG (Invitrogen) in the presence of 4 ug/mL Hoechst 33342 (Invitrogen). […]

Data set [5] has as its system U87MG cells. In words: Cells in mitosis (phospho-histone H3, mitotic index), U87MG. It counts as cell-based. Conditions: Homo sapiens, U-87 MG; % mitotic cells (phospho-histone H3), 24 hours.
Excerpt: as §8, §9, §10

The mark [6] stands for this setting: mouse, 2 mg/kg, 2 mq/Kq IV, male CD-1 mice, plasma.
Setting [7] is: mouse, 10 mg/kg, 10 mq/Kq PO, male CD-1 mice, plasma.
The mark [8] stands for this setting: mouse, po, brain exposure, p.o. 10 mg/kg, male CD-1 mice.

Molecules are shown by their SMILES.

Turning to `CN(C)CCNC(=O)c1ccc(-c2ccc(-c3ccc(Cl)cc3)n2-c2ccccc2C(F)(F)F)nc1` (single isomer, unassigned) [Atropisomer A-3, 6-[5-(4-chlorophenyl)-1-[2-(trifluoromethyl)phenyl]pyrrol-2-yl]-N-[2-(dimethylamino)ethyl]pyridine-3-carboxamide], the results for the 50% growth inhibitory concentration (GI50) (in data set [1]; with KRAS G12V HeLa cell line) were 4.68 nM and 2.6 nM, respectively. The compound further had a CI in data set [2] (2 mq/Kq IV, male CD-1 mice, plasma) of 16.8 mL/min/kg. Also, the F in data set [2] (10 mq/Kq PO vs 2 mq/Kq IV, male CD-1 mice) was determined as 70%. For the same compound, the AUC(0-inf) in data set [2] (setting [6]) worked out at 1990 ng·h/mL; in data set [2] (setting [7]) it was 6920 ng·h/mL. The Cmax came to 274 ng/mL in data set [2] (setting [6]), 322 ng/mL in data set [2] (setting [7]) and 604 ng/mL in data set [3] (setting [8]). Moreover, the half-life is 8.4 h in data set [2] (setting [6]); 8.3 h in data set [2] (setting [7]); 8.2 h in data set [3] (mouse, po, brain exposure, p.o. 10 mg/kg, male CD-1 mice, read-out: T ½ (converted)). Besides, the AUC(0-t) in data set [2] (mouse, po, plasma, p.o. 10 mg/kg, male CD-1 mice, read-out: AUClast plasma) turned out to be 6920 ng·h/mL; in data set [3] (mouse, po, brain, p.o. 10 mg/kg, male CD-1 mice, read-out: AUClast brain), 14100 ng·h/mL. In data set [2] (oral dosing in mice), the “oral absorption / oral bioavailability (in words)” value is on record as “highly absorbed”. Further, the Tmax in data set [3] (setting [8]) is 8 h. The “brain exposure (in words)” value in data set [3] (oral dosing in mice) was “high brain exposure”. The same compound returned an IC50 in the data set with U87MG cells [4] of 150 nM. Also, the EC50 in the data set with HeLa cells amounted to 30 nM; in the data set on U87MG cells [5], 100 nM.

By GI50 is commonly meant the concentration giving 50% growth inhibition. For orientation: AUC(0-inf) means the area under the concentration-time curve extrapolated to infinity. A high value points to more exposure. Usually Cmax stands for the maximum level reached in the sampled fluid or tissue. What is called Tmax is the time at which the peak concentration occurs. The IC50 is the concentration that inhibits the measured activity by half. Lower therefore signals greater potency in that assay. As usually defined, the EC50 is the concentration that produces a half-maximal response.

The values above are taken from patent publication US20220348565A1, “PHARMACEUTICAL COMPOUNDS” (SENTINEL ONCOLOGY LIMITED, priority 2019, published 2022).
